The text below walks through data of PubChem BioAssay (NCI).

Common to all, as to experiment: NCI anticancer screen, dose series, 48 h
Assay [1] relates to 786-0 renal.
Assay [2] has as its system CCRF-CEM leukemia.
The test system of assay [3] is HOP-62 NSCLC.
Assay [4] relates to IGROV1 ovarian.
The subject of assay [5] is NCI-H522 lung.
The test system of assay [6] is OVCAR-5 ovarian.
For assay [7], the system named is OVCAR-8 ovarian.
Assay [8] deals with RXF 393 renal.
Assay [9] deals with SK-MEL-2 melanoma.
Assay [10] deals with SNB-75 CNS.

“And” between values parts separate entries of the source, which are not always exact repeats. Identical values can stand only once.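 A five-concentration, 48-hour dose response in 96-well plates underlies each endpoint, interpolated linearly between surrounding concentrations. GI50 is the concentration that inhibits growth by half. TGI denotes the concentration required for complete inhibition of growth.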 Some results are limits rather than exact numbers.

In the case of `COc1ccc2c(c1)OC1=C(C(=O)OC1)C2c1cc(OC)c(OC)c(OC)c1` (stereo not given), the GI50 is 0.632 µM in assay [1]; 0.315 µM in assay [2]; 0.545 µM in assay [3]; 3.18 µM in assay [4]; 0.273 µM in assay [5]; 4.3 µM in assay [6]. The GI50 is 0.709 µM in [7], 0.231 µM in assay [8], 0.518 µM in assay [9] and 0.295 µM in assay [10]. Also, the TGI in assay [1] was > 100 µM; in assay [2] it was > 100 µM; in [3], > 100 µM; in [4], > 100 µM; in [5], 2.02 µM; in [6], > 100 µM. Further, the TGI was > 100 µM in [7], 0.735 µM in [8], > 100 µM in assay [9] and > 100 µM in [10].

On to `C=CCC(C(=O)O)c1ccccc1` (stereo not given), for which the TGI in assay [1], in [2], in [3], in assay [4], in [5] and in [6] was > 100 µM each time. Also, the TGI in [7], in assay [8], in [9] and in [10] was > 100 µM each time.

For `Cc1ccc(-c2nc(N)nc3c2nnn3Cc2cccc(CO[C@H]3CCOC3)n2)o1`, the GI50 in assay [1], in [2], in assay [3], in assay [4], in [5] and in [6] was > 100 µM in each case. Moreover, the GI50 in assay [7] was > 100 µM; in assay [8], > 100 µM; in assay [9], > 100 µM; in assay [10], 41.5 µM. Further, the TGI in assay [1], in [2], in assay [3], in assay [4], in assay [5] and in assay [6] was > 100 µM each time. The TGI in [7], in [8], in assay [9] and in [10] was > 100 µM each time.

`COc1cc(C(c2cc3c(cc2O)OCO3)N2CCCCC2)cc(OC)c1OC` (stereo not given): the TGI was 12.9 µM in assay [1]; 19.2 µM in assay [2]; > 70.9 µM in [3]; 32.4 µM in [4]; 26.7 µM in assay [5]; 32.2 µM in assay [6]. Besides, the TGI in assay [7] was found to be 28.1 µM; in assay [8] it was 27.6 µM; in assay [9] it was 32.9 µM; in [10] it was 33.5 µM.

On to `CCN=c1cc2sc3cc(NCC)c(C)cc3nc-2cc1C`, for which the GI50 in [1] was 3.1 µM; in assay [2] it was 0.76 µM; in [3], 2.09 µM; in assay [4] it was 2.4 µM; in assay [5] it was 0.419 µM; in [6], 2.51 µM. The GI50 is 1.22 µM in [7], 3.22 µM in assay [8], 1.82 µM in assay [9] and 1.8 µM in [10]. For the same compound, the TGI came out at 15.5 µM in assay [1]; 17.4 µM in [2]; 7.34 µM in assay [3]; 9.21 µM in [4]; 2.61 µM in [5]; 9.26 µM in assay [6]. Also, the TGI turned out to be 11.8 µM in assay [7], 18 µM in assay [8], 4.64 µM in assay [9] and 5.11 µM in [10].

On to `CCN(CC)CCNC(=O)c1nn(C)c(=S)[nH]c1=S`, for which the TGI in assay [1], in [2], in assay [3], in assay [4], in assay [5] and in assay [6] was > 100 µM each time. Besides, the TGI in assay [7], in assay [8], in assay [9] and in assay [10] was > 100 µM throughout.

For `CC(=O)N/C(=C\c1cccc([N+](=O)[O-])c1)c1nc2c3c(ccc2[nH]1)C(=O)c1ccccc1C3=O`, the TGI in assay [1] is > 100 µM; in assay [2] it was > 100 µM; in assay [3], > 100 µM; in assay [4] it was > 100 µM; in assay [5], 99.8 µM; in assay [6], > 100 µM. Besides, the TGI in [7], in assay [8], in assay [9] and in assay [10] was > 100 µM throughout.

As for `CCOC(=O)NC(=O)c1cn(CCCOC(=O)CCCCCCCCCCC(=O)OCCCn2cc(C(=O)NC(=O)OCC)c(=O)n(C)c2=O)c(=O)n(C)c1=O`, the TGI in assay [1], in assay [2], in assay [3], in [4], in assay [5] and in assay [6] was > 100 µM throughout. Besides, the TGI in [7], in [8], in assay [9] and in assay [10] was > 100 µM each time.

In the case of `O=P([O-])(O)OP(=O)([O-])O.[NH-][C@@H]1CCCC[C@H]1[NH-].[Pt+4]`, the GI50 is 20.6 µM and 7.98 µM in assay [1]; 13 µM and 6.59 µM in assay [2]; > 95.5 µM and 13.2 µM in assay [3]; 12.3 µM and 4.8 µM in [4]; 14.6 µM in assay [5]; > 52.1 µM and 14.5 µM in assay [6]. Moreover, the GI50 in [7] is 14.1 µM and 2.42 µM; in assay [8], 41.7 µM and 13.6 µM; in assay [9], > 53.2 µM; in assay [10] it was > 100 µM and 34 µM. Moreover, the TGI in [1] is > 100 µM and 76.6 µM; in assay [2] it was > 100 µM; in [3], > 100 µM; in assay [4], > 100 µM; in assay [5] it was > 100 µM; in assay [6] it was > 100 µM. Besides, the TGI in assay [7], in [8], in [9] and in assay [10] was > 100 µM each time.

As to `C=C1C(=O)[C@@]23CC1C(O)[C@@H](OC(C)=O)[C@@H]2C1(C)C(OC(C)=O)C[C@@H](OC(C)=O)C(C)(C)[C@@H]1C[C@H]3OC(C)=O` (stereo not given in full), the GI50 in assay [1] was 1.81 µg/mL; in [2], 361 nM and 0.239 µg/mL; in assay [3], 19.2 µg/mL; in assay [4] it was > 10 µM and 13.1 µg/mL; in assay [5], 1.31 µM and 0.288 µg/mL; in assay [6] it was > 10 µM and 7.32 µg/mL. Also, the GI50 in [7] was 3.37 µM and 3.94 µg/mL; in [8], 362 nM and 1.8 µg/mL; in assay [9], > 10 µM and 2.46 µg/mL; in assay [10], > 10 µM and 7.25 µg/mL. The TGI in [1] is > 10 µM and 3.97 µg/mL; in assay [2], 1.9 µM and 5.21 µg/mL; in [3], > 10 µM and 34.9 µg/mL; in assay [4], > 10 µM and 27.7 µg/mL; in assay [5], 2.64 µM and 1.44 µg/mL; in assay [6], > 10 µM and 16 µg/mL. For the same compound, the TGI in assay [7] was > 10 µM and 20.1 µg/mL; in [8], 4.21 µM and 5.35 µg/mL; in assay [9], > 10 µM and 5.65 µg/mL; in assay [10], > 10 µM and 20.5 µg/mL.

For `NC(=N\N=C/c1cccc([N+](=O)[O-])c1)/C(N)=N\N=C/c1cccc([N+](=O)[O-])c1`, the GI50 in assay [1], in [2], in assay [3], in assay [4], in assay [5] and in [6] was > 100 µM throughout. Moreover, the GI50 in [7], in assay [8], in [9] and in assay [10] was > 100 µM in each case. The TGI in assay [1], in assay [2], in [3], in [4], in assay [5] and in assay [6] was > 100 µM throughout. Besides, the TGI in [7], in assay [8], in [9] and in assay [10] was > 100 µM in each case.

Consider `CC(=O)Nc1c(C)ccc2c1C(=O)c1ccccc1C2=O`, for which the TGI in [1], in [2], in assay [3], in [4], in assay [5] and in assay [6] was > 100 µM each time. For the same compound, the TGI in assay [7], in [8], in [9] and in assay [10] was > 100 µM in each case.

Turning to `Cc1occc1C(=S)Nc1ccc(Cl)c(/C=N/OC(C)C)c1`, the TGI in assay [1] is 43.8 µM; in assay [2], 44.4 µM; in assay [3] it was > 60.9 µM; in [4], > 57.2 µM; in [5], 28.5 µM; in [6], 49.4 µM. In addition, the TGI in assay [7] was > 55.4 µM; in [8] it was 56.4 µM; in [9] it was 43.8 µM; in [10], 72.7 µM.

With `O=C(Nc1ccc(F)cc1F)c1cc(Br)ccc1O`, the GI50 in assay [1] is 3.13 µM; in [2], 3.71 µM; in assay [3], 2.69 µM; in [4], 2.18 µM; in assay [5], 2.83 µM; in assay [6], 3.83 µM. Moreover, the GI50 in assay [7] is 3.01 µM; in [8], 2.4 µM; in [9] it was 2.3 µM; in assay [10], 0.558 µM. Moreover, the TGI is 10.2 µM in assay [1]; 69.3 µM in assay [2]; 12.7 µM in assay [3]; > 100 µM in [4]; 39.9 µM in assay [5]; > 100 µM in assay [6]. Further, the TGI in assay [7] is > 100 µM; in assay [8], 7.03 µM; in assay [9] it was 6.74 µM; in [10], 3.73 µM.

For `O=C(CC12CC3CC(CC(C3)C1)C2)NCCOCCOCCOCCNC(=O)c1cc2c(o1)C(=O)c1ccccc1C2=O`, the GI50 in [1] is 2.55 µM; in assay [2] it was 2.72 µM; in assay [3] it was 1.89 µM; in assay [4] it was 1.66 µM; in assay [5], 1.54 µM; in assay [6] it was 1.75 µM. The GI50 in assay [7] was 1.15 µM; in assay [8] it was 1.55 µM; in assay [9], 1.64 µM; in [10], 2.02 µM. For the same compound, the TGI in [1] turned out to be 8.87 µM; in assay [2], 20.7 µM; in [3] it was 3.33 µM; in assay [4], 4.6 µM; in assay [5], 3.51 µM; in assay [6] it was 3.17 µM. Further, the TGI in assay [7] is 10.6 µM; in [8], 2.95 µM; in [9], 3.93 µM; in assay [10] it was 3.51 µM.

Consider `O=C(N/N=C/c1ccccc1Cl)c1ccccc1Nc1ccnc(C(F)(F)F)c1`, for which the GI50 in assay [1] is 0.616 µM; in assay [2], 0.32 µM; in assay [3], 1.31 µM; in [4] it was 1.87 µM; in assay [5] it was 1.98 µM; in assay [6], 2.75 µM. In addition, the GI50 was 2.29 µM in assay [7], 0.174 µM in assay [8], 1.79 µM in assay [9] and 2.41 µM in assay [10]. For the same compound, the TGI in assay [1] is 3.53 µM; in [2], 1.76 µM; in assay [3], 8.18 µM; in [4], 10.3 µM; in assay [5], 6.74 µM; in assay [6] it was 17.3 µM. The TGI was 8.08 µM in assay [7], 1.1 µM in assay [8], 5.02 µM in assay [9] and 26.7 µM in assay [10].

In the case of `COc1cc2cc(C(=O)Nc3cc(N)c4ccccc4c3CCCl)[nH]c2c(OC)c1OC`, the GI50 is < 0.005 µM in assay [1]; < 0.005 µM in assay [2]; 0.0244 µM in [3]; 0.0146 µM in assay [4]; 0.0153 µM in assay [5]; 0.0533 µM in assay [6]. The GI50 in [7] was 0.0191 µM; in [8] it was 0.00875 µM; in [9] it was 0.0895 µM; in assay [10], 0.0656 µM. Further, the TGI in assay [1] stood at 1.09 µM; in assay [2] it was 0.188 µM; in assay [3] it was 0.165 µM; in [4], 3.51 µM; in [5] it was 0.271 µM; in assay [6] it was 2.13 µM. The TGI turned out to be 0.841 µM in assay [7], 0.0219 µM in [8], 0.174 µM in assay [9] and 0.202 µM in [10].
